Laboratory results from patent publication US11066447B2, “Aureobasidium derivatives and methods of synthesis” (AureoGen Biosciences, Inc., priority 2016, dated 2021).
Converted amounts (≈) assume the structure as drawn. Read-outs that look alike come from different tables or passages of the source. Values belong to the compound of their own block, whether it stands above or below them. Numbered stars: 1 amine (or outer) side, 2 acyl side, 3 side chain; on linkers, the order of the positions; unused ones are H or OH. Square brackets hold non-standard residues; d marks the D form. Peptide text beside a SMILES is read from it. X1 = CC(C)N1CCN(c2ccc(-c3cccc(C[C@@H](C(=O)[*:2])N(C)[*:1])c3)cc2)CC1; Hmp(2R,3S) = CC[C@H](C)[C@@H](O)C(=O)O; NMeVal(β-OH) = CN[C@H](C(=O)O)C(C)(C)O; NMeV = CN[C@H](C(=O)O)C(C)C

Tests used:
[1] = test system: C. albicans MMX 2000 ATCC 10231; assay: MIC assay (CLSI microdilution); type: cell-based; conditions: Candida albicans, ATCC10231, RPMI plus 0.002% Tween-80; read-out: MIC
[2] = test system: C. neoformans MMX 0634 ATCC 90112; assay: MIC assay (CLSI microdilution); type: cell-based
[3] = test system: A. fumigatus MMX 5280 ATCC MYA-3626; assay: MIC/MEC assay (CLSI microdilution); type: cell-based, Aspergillus fumigatus
Summary of the method: (§1)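 Broth microdilution per CLSI in RPMI-1640 with 0.002% Tween-80; MMX 5280 also run without Tween-80. Test compounds serially diluted two-fold in 95% ethanol, amphotericin B in DMSO (0.06-64 μg/mL). Aspergillus spore inoculum gave approximately 0.2-2.5×10^4 CFU/mL final.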

[4] = test system: C. albicans MMX 2000 ATCC 10231; assay: MIC assay (CLSI microdilution); type: cell-based; conditions: Candida albicans, ATCC10231, Without Tween-80; read-out: MIC
[5] = test system: C. parapsilosis MMX 2323 ATCC 22019; conditions: Without Tween-80; quality control range; cited from earlier work
[6] = test system: A. fumigatus MMX 5280 ATCC MYA-3626; conditions: Without Tween-80, quality control range, cited from earlier work
[7] = test system: C. parapsilosis MMX 2323 ATCC 22019; assay: MIC assay (CLSI microdilution); type: cell-based, Candida parapsilosis; conditions: read-out: MIC
Summary of the method: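 Broth microdilution MIC testing of Candida parapsilosis ATCC 22019 followed CLSI methods in RPMI-1640, with or without 0.002% Tween-80. Yeast grown 48 hours at 35° C on Sabouraud dextrose agar was suspended to a 0.5 McFarland standard and diluted 1:100 to roughly 0.5-2.5×10^3 CFU/mL. The MIC was the lowest concentration preventing visible growth.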

A. flavus MMX 5948 = assay: MIC/MEC assay (CLSI microdilution); type: cell-based; conditions: Aspergillus flavus, MMX5948, 48 h, RPMI plus 0.002% Tween-80
Summary of the method: as §1

A. fumigatus MMX 5944 = assay: MIC/MEC assay (CLSI microdilution); type: cell-based
Summary of the method: as §1

[8] = test system: A. fumigatus MMX 6781 ATCC MYA-4609; assay: MIC/MEC assay (CLSI microdilution); type: cell-based; conditions: Aspergillus fumigatus
Summary of the method: as §1

[9] = test system: A. fumigatus MMX 6782 ATCC 13073; assay: MIC/MEC assay (CLSI microdilution); type: cell-based
Summary of the method: as §1

[10] = test system: A. fumigatus from Aureogen; assay: MIC/MEC assay (CLSI microdilution); type: cell-based
Summary of the method: as §1

[11] = test system: A. niger MMX 0624 ATCC 16888; assay: MIC/MEC assay (CLSI microdilution); type: cell-based
Summary of the method: as §1

Coccidiodes immitus = assay: organism not typed; type: cell-based
[12] = Cryptococcus neoformans, ATCC90112, 72 h, 72 hour, RPMI plus 0.002% Tween-80, read-out: MIC
[13] = Cryptococcus neoformans, ATCC90112, RPMI plus 0.002% Tween-80, read-out: MIC
[14] = RPMI plus 0.002% Tween-80, 48 hr
[15] = Aspergillus fumigatus, 48 h, RPMI plus 0.002% Tween-80, read-out: MIC

- MIC [1]: ≤ 0.06 µg/mL
- MIC [2, 12]: ≤ 0.06 µg/mL
- MIC [2, 13]: ≤ 0.06 µg/mL
- MIC ([3]; Without Tween-80, 48 hr): 0.5 µg/mL (≈ 0.541 µM)
- MIC [4]: ≤ 0.06 µg/mL
Compound: C[C@@H]1[C@H](O)[C@@H](C)/C=C/C=C/C=C/C=C/C=C/C=C/C=C/[C@H](O[C@@H]2O[C@H](C)[C@@H](O)[C@H](N)[C@@H]2O)C[C@@H]2O[C@](O)(C[C@@H](O)C[C@@H](O)[C@H](O)CC[C@@H](O)C[C@@H](O)CC(=O)O[C@H]1C)C[C@H](O)[C@H]2C(=O)O [Amphotericin B, reference compound]
- CLSI QC Range (MIC) [5]: (0.25-1)^1 μg/mL
- CLSI QC Range (MIC) [6]: 0.5 to 4 µg/mL
- CLSI QC Range (MIC) ([6]; listed as Amph. B): (0.5-4)^1 μg/mL

Compound: CC[C@H](C)[C@@H]1NC(=O)[C@@H]2CCCN2C(=O)[C@H](Cc2cccc(-c3ccc(N4CCN(C(C)C)CC4)cc3)c2)N(C)C(=O)[C@H](Cc2ccccc2)NC(=O)[C@H](C(C)C)N(C)C(=O)[C@@H]([C@@H](C)CC)OC(=O)[C@H](C(C)(C)O)N(C)C(=O)[C@H](CC(C)C)NC(=O)[C@H](C(C)C)N(C)C1=O [Compound 25] (cyclo(F[X1]PI[NMeV]L[NMeVal(β-OH)][Hmp(2R,3S)][NMeV]))
- MIC [1]: 0.015 µg/mL
- MIC ([2]; 72 hour, RPMI plus 0.002% Tween-80): 0.06 µg/mL
- MIC [2, 12]: 0.06 µg/mL
- MIC [2, 13]: 0.015 µg/mL
- MIC ([7]; ATCC22019, RPMI plus 0.002% Tween-80): 0.03 µg/mL
- MIC ([7]; ATCC22019, Without Tween-80): 1 µg/mL (≈ 0.767 µM)
- minimal effective concentration (A. flavus MMX 5948): 0.008 µg/mL
- minimal effective concentration (A. fumigatus MMX 5944; Aspergillus fumigatus, MMX5944, 48 h, RPMI plus 0.002% Tween-80): 0.015 µg/mL
- MIC (A. fumigatus MMX 5944; Aspergillus fumigatus, MMX5944, 48 h, RPMI plus 0.002% Tween-80, read-out: MIC): 0.06 µg/mL
- MIC (A. fumigatus MMX 5944; [14]): 0.06 µg/mL
- MIC ([8]; 48 h, RPMI plus 0.002% Tween-80, read-out: MIC): 0.12 µg/mL
- minimal effective concentration [8, 14]: 0.03 µg/mL
- minimal effective concentration ([9]; Aspergillus fumigatus, ATCC13073, 48 h, RPMI plus 0.002% Tween-80, read-out: MEC): 0.015 µg/mL
- MIC ([9]; Aspergillus fumigatus, ATCC13073, 48 h, RPMI plus 0.002% Tween-80, read-out: MIC): 0.06 µg/mL
- MIC [9, 14]: 0.06 µg/mL
- minimal effective concentration ([10]; Aspergillus fumigatus, 48 h, RPMI plus 0.002% Tween-80): 0.06 µg/mL
- MIC [10, 15]: 0.12 µg/mL
- MEC [10, 14]: 0.06 µg/mL
- minimal effective concentration ([11]; Aspergillus niger, ATCC16888, 48 h, RPMI plus 0.002% Tween-80, read-out: MEC): 0.015 µg/mL
- MIC ([11]; Aspergillus niger, ATCC16888, 48 h, RPMI plus 0.002% Tween-80, read-out: MIC): 0.015 µg/mL
- MIC [11, 14]: 0.015 µg/mL
- minimal effective concentration ([3]; Aspergillus fumigatus, 48 h, RPMI plus 0.002% Tween-80, read-out: MEC): 0.03 µg/mL
- MIC [3, 15]: 0.12 µg/mL
- minimal effective concentration ([3]; Aspergillus fumigatus, 48 h, Without Tween-80, read-out: MEC): 0.5 µg/mL
- MIC ([3]; Aspergillus fumigatus, 48 h, Without Tween-80, read-out: MIC): 1 µg/mL (≈ 0.767 µM)
- MEC ([3]; Without Tween-80, 48 hr): 1/1 μg/mL
- MIC ([3]; Without Tween-80, 48 hr): 1 µg/mL (≈ 0.767 µM)
- MIC (Coccidiodes immitus): 0.15 µg/mL (≈ 0.115 µM)
- MIC [4]: 1 µg/mL (≈ 0.767 µM)
